Experimental data from patent US7022719B2, “Preventing and reversing the formation of advance glycosylation endproducts” (Alteon, Inc., priority 1995, dated 2006).

Legend:
[1] = tested on: cross-linking of glycated bovine serum albumin (AGE-BSA) to rat tail tendon collagen; assay: Cross-linking Inhibition Assay; details: at 10 mM
Procedure: The following method was used to evaluate the ability of the compounds of the present invention to inhibit the cross-linking of glycated bovine serum albumin (AGE-BSA) to the rat tail tendon collagen-coated 96-well plate.
The blocking solution was removed from the wells by, washing the plate twice with PBS-'Tween 20 solution (0.05% Tween 20) using a NUNq-multiprobe or Dynatech ELISA-plate washer. Cross-linking of AGE-BSA (1 to 10 mg per well depending on the batch of AGE-BSA) to rat tail tendon collagen coated plate was performed with and without the testing ‘compound dissolved in PBS buffer at pH 7.4 at the desired concentrations by the, addition of 50 μl each of the AGE-BSA diluted in PBS or in the solution of test compound at 37° C. for 4 hours. Unbrowned BSA in PBS buffer with or without testing compound were added to the separate wells as the blanks. The un-cross-linked AGE-BSA was then removed by washing the wells three times with PBS-Tween buffer. The amount of AGE-BSA cross-linked to the tail tendon collagen-coated plate was then quantitated using a polyclonal antibody raised against AGE-RNase. After a one-hour incubation period, AGE antibody was removed by washing 4 times with PBS-Tween.
The bound AGE antibody was then detected with the addition of horseradish peroxidase-conjugated secondary antibody—goat anti-rabbit immunoglobulin and incubation for 30 minutes. […] The reaction was allowed for an additional 15 minutes and the absorbance was read at 410 nm in a Dynatech plate reader.

[2] = tested on: AGE-BSA crosslinked to collagen; assay: Cross-link Breaking Assay (sandwich enzyme immunoassay); format: biochemical; details: at 10 mM
Procedure: The present invention also involves a novel sandwich enzyme immunoassay used to ascertain the ability of test compounds to “break” or reverse already formed advanced glycosylation endproducts by detecting the breaking of AGE (Advanced glycosylation endproduct) moieties from AGE-crosslinked protein. This assay comprises: • a) incubation of AGE-modified bovine serum albumin (AGE BSA) on collagen-coated wells of microtiter plates for a period of 2–6 hours' at a temperature of 37° C.; • b) washing of the wells with PBS-Tween; • c) application of the test compounds to the washed wells of step b; • d) incubation of the test compounds applied to the washed wells for an additional 12–24 hours at a temperature of about 37° C.; and • e) detection of the AGE-breaking using an antibody raised against AGE-ribonuclease or cross-link breaking with an antibody against BSA.
In order to ascertain the ability of the compounds of the instant invention to “break” or reverse already formed advanced glycosylation endproducts, a novel sandwich enzyme immunoassay was developed which detects breaking of AGE (Advanced glycosylation endproduct) moieties from AGE-crosslinked protein. The assay utilizes collagen-coated 96 well microtiter plates that are obtained commercially. […] Following an incubation period of 16 hours (37° C.) cross-link-breaking is detected using an antibody raised against AGE-ribonuclease or with an antibody against BSA. […] Details of the assay are as follows:
Methods Preparation of Solutions and Buffers • 1. AGE-BSA stock solutions were prepared as follows. Sodium phosphate buffer (0.4 M) was prepared by dissolving 6 grams of monobasic sodium phosphate in 100 ml of distilled water, 7 grams of dibasic sodium phosphate (0.4 M) in 100 ml of distilled water and adjusting the pH of the dibasic solution to 7.4 with the monobasic solution. Sodium azide (0.02 grams) was added per 100 ml volume to inhibit bacterial growth. The BSA solution was prepared as follows: 400 mg of Type V BSA (bovine serum albumin) was added for each ml of sodium phosphate buffer (above). A 400 mM glucose solution was prepared by dissolving 7.2 grams of dextrose in 100 ml of sodium phosphate buffer (above). The BSA and glucose solutions were mixed 1:1 and incubated at 37° C. for 12 weeks. The pH of the incubation mixture was monitored weekly and adjusted to pH 7.4 if necessary. After 12 weeks, the AGE-BSA solution was dialyzed against PBS for 48 hours with four buffer changes, each at a 1:500 ratio of solution to dialysis buffer. Protein concentration was determined by the micro-Lowry method. The AGE-BSA stock solution was aliquoted and stored at −20° C. […] Working solutions for crosslinking and breaking studies were prepared as follows. Test compounds were dissolved in PBS and the pH was adjusted to pH 7.4 if necessary. AGE-BSA stock solution was diluted in PBS to measure maximum crosslinking and in the inhibitor solution for testing inhibitory activity of compounds. The concentration of AGE-BSA necessary to achieve the optimum sensitivity was determined by initial titration of each lot of AGE-BSA. • 3. Wash buffer (“PBS-Tween”) was, prepared as follows. PBS was prepared by dissolving the following salts in one liter of distilled water: NaCl, 8 grams; KC1, 0.2 gram, KH2PO4. […] Tween-20 was added to a final concentration of 0.05% (vol/vol). • 4. Substrates for detection of secondary antibody binding were prepared by diluting the HRP substrate buffer 1:10 in distilled water and mixing with ABTS chromogen 1:50 just prior to use. Assay Procedures • 1. Biocoat plates were blocked with 300 μl of “Superbloc”. Plates were blocked for one hour at room temperature and were washed with PBS-Tween three times with the Dynatech platewasher before addition of test reagents. • 2. Each experiment was set up in the following manner. The first three wells of the Biocoat plate were used for the reagent blank.

[3] = tested on: IgG crosslinked to circulating red blood cells; assay: RBC-IgG Assay in streptozotocin-induced diabetic rats; format: in vivo, rat; details: diabetic rats dosed orally at 10 mg/kg body weight; 19 days
Procedure: The test compounds are administered to the test animals either orally or intraperitoneally, and the blood samples are collected are tested at various times, e.g. 4, 7 or 19 days, after administration to assess efficacy.
Blood is collected from the rats in heparinized tubes and spun at 2000×g for 10 minutes, and the plasma carefully removed. Then, about 5 ml of PBS per ml blood is added, gently mixed, and then spun again. The supernatant is then removed by aspiration. The wash is then repeated two more times. Then, 0.2 to 0.3 ml of packed RBC is withdrawn from the bottom of the tube, using a pipette, and added to the PBS to make a 1 to 10 dilution. This dilution is then further diluted 1 to 25 and 1 to 50 in PBS. • B. Assay Set Up. • 1. Warm Superbloc to 37° C. • 2. Take a plate of Multiscreen-HA, 0.45 u. Cellulose ester membrane-sealed 96 well plate (Millipore MARAS45). • 3. Wet the wells with 100 μl of PBS. • 4. Add 300 μl of superblock to each well and incubate at 37° C. for one hour. • 5. Place the plate on the Millititer Vacuum holder, turn on the vacuum and press the plate down once for tight hold. The liquids in the wells will be suctioned off. Wash the wells with 300 μl of PBS-Tween 0.05%. • 6. Turn off the vacuum and add 100 μl of PBS to each well. • 7. […] Read OD of the solution collected in the Coming plate on Dynatech Plate reader Sample filter 1 and Ref. filter 4. • 17. […]

[4] = tested on: aortic wall protein cross-linking; details: diabetic rats; cited from earlier work
[5] = tested on: glomerular basement membrane thickness; details: streptozotocin-diabetic rat model; cited from earlier work
[6] = tested on: red blood cells; details: in vivo; cited from earlier work
[7] = tested on: immunoglobulin trapping in the kidney; details: in vivo; cited from earlier work

Structure (SMILES) | Relative Cross-link Inhibition (at 10 mM) [1] | Breaking Anti-AGE ([2]; anti-AGE antibody) | Breaking Anti-BSA ([2]; anti-BSA antibody) | Percent Inhibition (RBC-IgG) [3] | aortic wall protein cross-linking [4] | increased glomerular basement membrane thickness [5] | diabetes-induced changes in the deformability of red blood cells [6] | immunoglobulin trapping in the kidney [7]
Cc1c(CCO)sc[n+]1CC(=O)c1ccc2ccccc2c1.[Br-] [3-(2-(2′-naphthyl)-2-oxoethyl]-4-methyl-5-(2′-hydroxyethyl)-thiazolium bromide] | 61% | 52% | 61% | 40 ± 24 @ 19 days % |  |  |  | 
N=C(N)NN [aminoguanidine] |  |  |  |  | diminishes | prevented | prevent | reduction
